This assay concerns the target T1, Recombinant human mPGES-1 (Homo sapiens, UniProt O14684).
T1 construct: made in house; host or cells: CHO cells (crude microsomal fractions)
T1 sequence (O14684 1-152): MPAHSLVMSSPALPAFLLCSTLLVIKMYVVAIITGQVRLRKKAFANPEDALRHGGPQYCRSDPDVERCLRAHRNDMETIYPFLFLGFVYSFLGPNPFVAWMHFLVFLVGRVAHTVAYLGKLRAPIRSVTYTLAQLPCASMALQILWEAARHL
As to the kind of experiment: In-vitro screening of mPGES-1 inhibitors (inhibition of PGE2 formation from PGH2, HTRF detection). Type of assay: biochemical. The conditions noted are these: mPGES-1 enzyme; for inhibition at 1 µM: 1 μM test compound, read-out: Percentage inhibition at 1 μM; for inhibition at 1 µM / inhibition at 10 µM: crude microsomal fractions; for inhibition at 10 µM: 10 μM test compound, read-out: Percentage inhibition at 10 μM; for IC50: class symbols. In a few lines: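 PGH2-to-PGE2 isomerization run for 1 min with 15 μM PGH2 after 10 min compound preincubation with microsomal enzyme (40–60 μg/mL) and 2.5 mM GSH, pH buffer 0.1 M potassium phosphate with EDTA. Stannous chloride quench, HTRF PGE2 readout, IC50 fitted against uninhibited reaction.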
A general note: Time-resolved FRET reads energy transfer from a long-lived donor to a nearby acceptor.

Consider `CC(C)(C)C(=O)NCc1cc(-c2nn(-c3ccc(Cl)cc3)c(=O)[nH]2)c(Cl)cc1F` [Example-126, N-(4-Chloro-5-(1-(4-chlorophenyl)-4,5-dihydro-5-oxo-1H-1,2,4-triazol-3-yl)-2-fluorobenzyl)pivalamide], for which the inhibition (in general, the percentage by which the read-out fell short of the control) at 1 µM is 100%; the inhibition at 10 µM is 99.3%; the IC50 (commonly the point on the concentration scale where inhibition reaches its midpoint) is below 0.05 µM.

With `COc1cc(Cl)c(-c2nn(-c3ccc(C(F)(F)F)cc3)c(=O)[nH]2)cc1CNC(=O)C(C)(C)C` [Example-127, N-(4-Chloro-5-(1-(4-(trifluoromethyl)phenyl)-4,5-dihydro-5-oxo-1H-1,2,4-triazol-3-yl)-2-methoxybenzyl)pivalamide], the inhibition at 1 µM worked out at 32.4% and the inhibition at 10 µM worked out at 58.5%.

Turning to `CC(C)(C)C(=O)NCc1cc(-c2nn(-c3ccc(F)c(C(F)(F)F)c3)c(=O)[nH]2)c(Cl)cc1F` [Example-128, N-(4-Chloro-2-fluoro-5-(1-(4-fluoro-3-(trifluoromethyl)phenyl)-4,5-dihydro-5-oxo-1H-1,2,4-triazol-3-yl)benzyl)pivalamide], the inhibition at 1 µM stood at 91.8%, the inhibition at 10 µM stood at 89.3% and the IC50 was below 0.05 µM.

Take `CC(C)(C)C(=O)NCc1cc(-c2nn(-c3ccc(C(F)(F)F)nc3)c(=O)[nH]2)c(Cl)cc1F` [Example-129, N-(4-Chloro-2-fluoro-5-(1-(6-(trifluoromethyl)pyridin-3-yl)-4,5-dihydro-5-oxo-1H-1,2,4-triazol-3-yl)benzyl)pivalamide]: the inhibition at 1 µM is 93.5%, the inhibition at 10 µM is 92.1% and the IC50 was below 0.05 µM.

Take `CC(C)(C)C(=O)NCc1cc(-n2nc(-c3ccc(C#CC4CC4)cc3)[nH]c2=O)c(Cl)cc1Cl` [Example-130, N-(2,4-Dichloro-5-(3-(4-(2-cyclopropylethynyl)phenyl)-4,5-dihydro-5-oxo-1,2,4-triazol-1-yl)benzyl)pivalamide]: the inhibition at 1 µM worked out at 96.6%, the inhibition at 10 µM came to 97.8% and the IC50 was 0.05 to 0.1 µM.

On to `CC(C)(C)C(=O)NCc1cc(-c2nn(-c3ccc(F)c(Cl)c3)c(=O)[nH]2)c(Cl)cc1F` [Example-131, N-(4-Chloro-5-(1-(3-chloro-4-fluorophenyl)-4,5-dihydro-5-oxo-1H-1,2,4-triazol-3-yl)-2-fluorobenzyl)pivalamide], for which the inhibition at 1 µM came to 100%, the inhibition at 10 µM was 99.2% and the IC50 was below 0.05 µM.

Consider `O=C(NCc1cc(-c2nn(-c3ccc(Cl)cc3)c(=O)[nH]2)c(Cl)cc1F)c1ccccc1F` [Example-132, N-(4-Chloro-5-(1-(4-chlorophenyl)-4,5-dihydro-5-oxo-1H-1,2,4-triazol-3-yl)-2-fluorobenzyl)-2-fluorobenzamide], for which the inhibition at 1 µM is 91.8%, the inhibition at 10 µM was 89.8% and the IC50 was below 0.05 µM.

As to `CC(C)C(=O)NCc1cc(-c2nn(-c3ccc(C(F)(F)F)cc3)c(=O)[nH]2)c(Cl)cc1F` [Example-133, N-(4-Chloro-2-fluoro-5-(1-(4-(trifluoromethyl)phenyl)-4,5-dihydro-5-oxo-1H-1,2,4-triazol-3-yl)benzyl)isobutyramide], the inhibition at 1 µM came out at 98%, the inhibition at 10 µM was determined as 97.9% and the IC50 is below 0.05 µM.

For the compound `CC(C)(CF)C(=O)NCc1cc(-c2nn(-c3ccc(Cl)cc3)c(=O)[nH]2)c(Cl)cc1F` [Example-134, N-(4-Chloro-5-(1-(4-chlorophenyl)-4,5-dihydro-5-oxo-1H-1,2,4-triazol-3-yl)-2-fluorobenzyl)-3-fluoro-2,2-dimethylpropanamide], the inhibition at 1 µM worked out at 91.5%, the inhibition at 10 µM is 93.9% and the IC50 is below 0.05 µM.

As for `Cc1ccc(-n2nc(-c3cc(CNC(=O)C(C)(C)C)c(F)cc3Cl)[nH]c2=O)cc1Cl` [Example-135, N-(4-Chloro-5-(1-(3-chloro-4-methylphenyl)-4,5-dihydro-5-oxo-1H-1,2,4-triazol-3-yl)-2-fluorobenzyl)pivalamide], the inhibition at 1 µM is 92.3%, the inhibition at 10 µM amounted to 98.9% and the IC50 is below 0.05 µM.

For the compound `CC(C)(C)C(=O)NCc1cc(-n2nc(-c3ccc(C#CC4CC4)cc3)[nH]c2=O)c(Cl)cc1F` [Example-136, N-(4-Chloro-5-(3-(4-(2-cyclopropylethynyl)phenyl)-4,5-dihydro-5-oxo-1,2,4-triazol-1-yl)-2-fluorobenzyl)pivalamide], the inhibition at 1 µM was 95.1%, the inhibition at 10 µM came to 94.8% and the IC50 was below 0.05 µM.

On to `CC(C)(C)C#Cc1ccc(-c2nn(-c3cc(CNC(=O)C(C)(C)C)c(F)cc3Cl)c(=O)[nH]2)cc1` [Example-137, N-(4-Chloro-2-fluoro-5-(4,5-dihydro-3-(4-(3,3-dimethylbut-1-ynyl)phenyl)-5-oxo-1,2,4-triazol-1-yl)benzyl)pivalamide], for which the inhibition at 1 µM stood at 93.4%, the inhibition at 10 µM was found to be 93.1% and the IC50 is below 0.05 µM.

Consider `CC(C)(C)C(=O)NCc1ccc(Cl)c(-c2nn(-c3ccc(C(F)(F)F)nc3)c(=O)[nH]2)c1` [Example-138, N-(4-Chloro-3-(1-(6-(trifluoromethyl)pyridin-3-yl)-4,5-dihydro-5-oxo-1H-1,2,4-triazol-3-yl)benzyl)pivalamide], for which the inhibition at 1 µM stood at 93.3%, the inhibition at 10 µM stood at 92.9% and the IC50 was below 0.05 µM.

With `CC(C)(C)C(=O)NCc1ccc(Cl)c(-c2nn(-c3ccc(F)c(Cl)c3)c(=O)[nH]2)c1` [Example-139, N-(4-Chloro-3-(1-(3-chloro-4-fluorophenyl)-4,5-dihydro-5-oxo-1H-1,2,4-triazol-3-yl)benzyl)pivalamide], the inhibition at 1 µM worked out at 93.9%, the inhibition at 10 µM was 99.1% and the IC50 was below 0.05 µM.

As for `Cc1ccc(-n2nc(-c3cc(CNC(=O)C(C)(C)C)ccc3Cl)[nH]c2=O)cc1Cl` [Example-140, N-(4-Chloro-3-(1-(3-chloro-4-methylphenyl)-4,5-dihydro-5-oxo-1H-1,2,4-triazol-3-yl)benzyl)pivalamide], the inhibition at 1 µM was 97.4%, the inhibition at 10 µM was determined as 98.1% and the IC50 was below 0.05 µM.

Take `CC(C)(C)C(=O)NCc1ccc(Cl)c(-n2nc(-c3ccc(C#CC4CC4)cc3)[nH]c2=O)c1` [Example-141, N-(4-Chloro-3-(3-(4-(2-cyclopropylethynyl)phenyl)-4,5-dihydro-5-oxo-1,2,4-triazol-1-yl)benzyl)pivalamide]: the inhibition at 1 µM came to 97.6%, the inhibition at 10 µM came to 97.5% and the IC50 is below 0.05 µM.

As for `CC(C)(C)C(=O)NCc1ccc(Cl)c(-c2nn(-c3cccc(C(F)(F)F)c3)c(=O)[nH]2)c1` [Example-142, N-(4-Chloro-3-(1-(3-(trifluoromethyl)phenyl)-4,5-dihydro-5-oxo-1H-1,2,4-triazol-3-yl)benzyl)pivalamide], the inhibition at 1 µM is 97.2%, the inhibition at 10 µM was found to be 94% and the IC50 is below 0.05 µM.

As to `CC(C)C(=O)NCc1ccc(Cl)c(-n2nc(-c3ccc(C#CC(C)(C)C)cc3)[nH]c2=O)c1` [Example-143, N-(4-Chloro-3-(4,5-dihydro-3-(4-(3,3-dimethylbut-1-ynyl)phenyl)-5-oxo-1,2,4-triazol-1-yl)benzyl)isobutyramide], the inhibition at 1 µM came out at 99.2%, the inhibition at 10 µM stood at 90.7% and the IC50 was below 0.05 µM.

`CC(C)C(=O)NCc1ccc(Cl)c(-c2nn(-c3ccc(C(F)(F)F)cc3)c(=O)[nH]2)c1` [Example-144, N-(4-Chloro-3-(1-(4-(trifluoromethyl)phenyl)-4,5-dihydro-5-oxo-1H-1,2,4-triazol-3-yl)benzyl)isobutyramide]: the inhibition at 1 µM was determined as 97.5%, the inhibition at 10 µM was 92.7% and the IC50 is below 0.05 µM.

Take `CC(C)(C)C(=O)NCc1ccc(Cl)c(-n2nc(-c3ccc(C(F)(F)F)cc3)[nH]c2=O)c1` [Example-145, N-(4-Chloro-3-(3-(4-(trifluoromethyl)phenyl)-4,5-dihydro-5-oxo-1,2,4-triazol-1-yl)benzyl)pivalamide]: the inhibition at 1 µM turned out to be 94.2%, the inhibition at 10 µM was determined as 98.9% and the IC50 is below 0.05 µM.

On to `CC(C)(C)C(=O)NCc1ccc(Cl)c(-n2nc(-c3ccc(C(F)(F)F)c(F)c3)[nH]c2=O)c1` [Example-146, N-(4-Chloro-3-(3-(3-fluoro-4-(trifluoromethyl)phenyl)-4,5-dihydro-5-oxo-1,2,4-triazol-1-yl)benzyl)pivalamide], for which the inhibition at 1 µM was found to be 100%, the inhibition at 10 µM amounted to 99.7% and the IC50 was below 0.05 µM.

Consider `CC(C)(C)C(=O)NCc1ccc(Cl)c(-n2nc(-c3ccc(Cl)c(C(F)(F)F)c3)[nH]c2=O)c1` [Example-147, N-(4-Chloro-3-(3-(4-chloro-3-(trifluoromethyl)phenyl)-4,5-dihydro-5-oxo-1,2,4-triazol-1-yl)benzyl)pivalamide], for which the inhibition at 1 µM was determined as 98.6%, the inhibition at 10 µM turned out to be 97.6% and the IC50 is below 0.05 µM.

As for `CC(C)(C)C(=O)NCc1ccc(Cl)c(-n2nc(-c3ccc(F)c(C(F)(F)F)c3)[nH]c2=O)c1` [Example-148, N-(4-Chloro-3-(3-(4-fluoro-3-(trifluoromethyl)phenyl)-4,5-dihydro-5-oxo-1,2,4-triazol-1-yl)benzyl)pivalamide], the inhibition at 1 µM amounted to 98.9%, the inhibition at 10 µM came to 97.8% and the IC50 was below 0.05 µM.

(Values after patent publication US10821100B2, “Triazolone compounds as mPGES-1 inhibitors” (Glenmark Pharmaceuticals S.A., priority 2012, dated 2020).)
